Results as given in the NIST ThermoML archive (doi:10.1016/j.jct.2007.11.009).

Experiment: xn = mol fraction of the nth substance listed
Conditions: Liquid, Vibrating tube method

CCCCCCCC [octane] + c1ccccc1
mass density [kg/m3]
Conditions | x1 = 0.1097 | x1 = 0.2036 | x1 = 0.2984 | x1 = 0.4069 | x1 = 0.5027 | x1 = 0.5904 | x1 = 0.6989 | x1 = 0.7964 | x1 = 0.904 | x1 = 1
298.15 K, 100 kPa | 838.3 | 813.5 | 792.3 | 771.6 | 755.7 | 743 | 729.1 | 718.2 | 707.3 | 698.7
298.15 K, 2130 kPa | 839.9 | 815.2 | 794 | 773.3 | 757.4 | 744.8 | 730.9 | 719.9 | 709.1 | 700.4
298.15 K, 4150 kPa | 841.6 | 816.9 | 795.7 | 775.1 | 759.2 | 746.5 | 732.6 | 721.7 | 710.8 | 702.2
298.15 K, 6180 kPa | 843.3 | 818.6 | 797.4 | 776.8 | 760.9 | 748.2 | 734.3 | 723.4 | 712.4 | 703.8
298.15 K, 8210 kPa | 844.9 | 820.2 | 799.1 | 778.5 | 762.5 | 749.9 | 735.9 | 725 | 714.1 | 705.4
298.15 K, 10230 kPa | 846.5 | 821.8 | 800.7 | 780.1 | 764.2 | 751.5 | 737.6 | 726.7 | 715.7 | 707
298.15 K, 11250 kPa | 847.3 | 822.7 | 801.5 | 780.9 | 765 | 752.3 | 738.4 | 727.5 | 716.5 | 707.8
298.15 K, 12260 kPa | 848.1 | 823.5 | 802.4 | 781.7 | 765.8 | 753.2 | 739.2 | 728.3 | 717.3 | 708.6
298.15 K, 14290 kPa | 849.7 | 825.1 | 803.9 | 783.4 | 767.4 | 754.7 | 740.8 | 729.8 | 718.8 | 710.1
298.15 K, 16310 kPa | 851.2 | 826.6 | 805.5 | 784.9 | 769 | 756.3 | 742.4 | 731.4 | 720.4 | 711.7
298.15 K, 18340 kPa | 852.7 | 828.1 | 807 | 786.4 | 770.5 | 757.8 | 743.8 | 732.9 | 721.9 | 713.1
298.15 K, 20370 kPa | 854.2 | 829.6 | 808.5 | 788 | 772 | 759.3 | 745.3 | 734.4 | 723.3 | 714.6
298.15 K, 22390 kPa | 855.7 | 831.1 | 810 | 789.4 | 773.4 | 760.8 | 746.8 | 735.8 | 724.8 | 715.9
298.15 K, 24420 kPa | 857.1 | 832.6 | 811.5 | 790.8 | 774.9 | 762.2 | 748.2 | 737.2 | 726.2 | 717.4
298.15 K, 26450 kPa | 858.5 | 834 | 812.9 | 792.3 | 776.3 | 763.6 | 749.6 | 738.7 | 727.5 | 718.8
298.15 K, 28470 kPa | 859.9 | 835.4 | 814.3 | 793.7 | 777.7 | 765 | 751 | 740 | 728.9 | 720.1
298.15 K, 29490 kPa | 860.6 | 836.1 | 815 | 794.3 | 778.4 | 765.7 | 751.7 | 740.7 | 729.6 | 720.8
298.15 K, 30500 kPa | 861.3 | 836.8 | 815.7 | 795 | 779.1 | 766.4 | 752.4 | 741.4 | 730.2 | 721.4
298.15 K, 32530 kPa | 862.6 | 838.1 | 817 | 796.4 | 780.4 | 767.7 | 753.7 | 742.7 | 731.5 | 722.7
298.15 K, 34550 kPa | 864 | 839.5 | 818.4 | 797.8 | 781.8 | 769.1 | 755 | 744.1 | 732.9 | 724
298.15 K, 36580 kPa | 865.3 | 840.8 | 819.7 | 799.1 | 783.1 | 770.4 | 756.4 | 745.4 | 734.2 | 725.3
298.15 K, 38600 kPa | 866.6 | 842.1 | 821 | 800.4 | 784.4 | 771.7 | 757.6 | 746.5 | 735.4 | 726.5
298.15 K, 39620 kPa | 867.3 | 842.7 | 821.6 | 801 | 785 | 772.3 | 758.2 | 747.1 | 736 | 727.1
308.15 K, 100 kPa | 828.4 | 803.9 | 783 | 762.6 | 747 | 734.5 | 720.8 | 709.9 | 699.3 | 690.8
308.15 K, 2130 kPa | 830.2 | 805.7 | 784.9 | 764.5 | 748.8 | 736.4 | 722.7 | 711.8 | 701.1 | 692.6
308.15 K, 4150 kPa | 832 | 807.5 | 786.7 | 766.3 | 750.7 | 738.2 | 724.5 | 713.7 | 703 | 694.4
308.15 K, 6180 kPa | 833.7 | 809.3 | 788.5 | 768.2 | 752.5 | 740 | 726.3 | 715.5 | 704.8 | 696.2
308.15 K, 8210 kPa | 835.5 | 811.1 | 790.3 | 770 | 754.3 | 741.8 | 728.1 | 717.2 | 706.5 | 698
308.15 K, 10230 kPa | 837.2 | 812.8 | 792 | 771.7 | 756.1 | 743.6 | 729.9 | 719 | 708.3 | 699.7
308.15 K, 11250 kPa | 838 | 813.7 | 792.9 | 772.6 | 756.9 | 744.4 | 730.7 | 719.8 | 709.1 | 700.5
308.15 K, 12260 kPa | 838.8 | 814.5 | 793.7 | 773.4 | 757.8 | 745.3 | 731.6 | 720.7 | 709.9 | 701.3
308.15 K, 14290 kPa | 840.5 | 816.2 | 795.4 | 775.1 | 759.5 | 747 | 733.2 | 722.3 | 711.6 | 703
308.15 K, 16310 kPa | 842.1 | 817.8 | 797 | 776.7 | 761.1 | 748.6 | 734.8 | 723.9 | 713.1 | 704.5
308.15 K, 18340 kPa | 843.7 | 819.5 | 798.7 | 778.4 | 762.7 | 750.2 | 736.5 | 725.5 | 714.8 | 706.1
308.15 K, 20370 kPa | 845.3 | 821 | 800.3 | 780 | 764.3 | 751.8 | 738 | 727.1 | 716.3 | 707.6
308.15 K, 22390 kPa | 846.8 | 822.6 | 801.8 | 781.5 | 765.8 | 753.3 | 739.6 | 728.6 | 717.8 | 709.1
308.15 K, 24420 kPa | 848.3 | 824.1 | 803.4 | 783.1 | 767.4 | 754.8 | 741.1 | 730.1 | 719.3 | 710.6
308.15 K, 26450 kPa | 849.8 | 825.6 | 804.9 | 784.6 | 768.9 | 756.3 | 742.6 | 731.6 | 720.8 | 712
308.15 K, 28470 kPa | 851.3 | 827.1 | 806.4 | 786 | 770.4 | 757.8 | 744 | 733 | 722.2 | 713.4
308.15 K, 29490 kPa | 852 | 827.8 | 807.1 | 786.8 | 771.1 | 758.5 | 744.8 | 733.7 | 722.9 | 714.1
308.15 K, 30500 kPa | 852.7 | 828.6 | 807.8 | 787.5 | 771.8 | 759.2 | 745.5 | 734.4 | 723.6 | 714.8
308.15 K, 32530 kPa | 854.2 | 830 | 809.2 | 788.9 | 773.2 | 760.7 | 746.9 | 735.8 | 725 | 716.2
308.15 K, 34550 kPa | 855.5 | 831.4 | 810.6 | 790.3 | 774.6 | 762 | 748.3 | 737.2 | 726.3 | 717.5
308.15 K, 36580 kPa | 856.9 | 832.8 | 812 | 791.7 | 776 | 763.4 | 749.6 | 738.5 | 727.7 | 718.8
308.15 K, 38600 kPa | 858.3 | 834.2 | 813.4 | 793.1 | 777.3 | 764.7 | 750.9 | 739.9 | 729 | 720.2
308.15 K, 39620 kPa | 859 | 834.9 | 814.1 | 793.7 | 778 | 765.4 | 751.6 | 740.6 | 729.7 | 720.8
